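The compound was tested at five concentrations on cells cultured in 96-well plates, with a 48-hour exposure period. GI50 marks 50% less growth.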 Active and inactive are the calls of the source. Rule as the data show it: active = GI50 up to about 1.1 µM and inactive = higher.
Experiments:
Assay in all cases: NCI-60 cell line screen, 48 h
MOLT-4 = system: MOLT-4
CCRF-CEM = system: CCRF-CEM
786-0 = system: 786-0
OVCAR-3 = system: OVCAR-3
EKVX = system: EKVX
IGROV-1 = system: IGROV-1
ACHN = system: ACHN
KM12 = system: KM12
SNB-19 = system: SNB-19
SNB-75 = system: SNB-75
T47D = system: T47D
HL-60 = system: HL-60
NCI-H522 = system: NCI-H522
OVCAR-8 = system: OVCAR-8
RXF 393 = system: RXF 393
UO-31 = system: UO-31
NCI-H23 = system: NCI-H23
SN12C = system: SN12C
HCT-15 = system: HCT-15
A498 = system: A498
SK-OV-3 = system: SK-OV-3
SF-539 = system: SF-539
NCI-H460 = system: NCI-H460
HT-29 = system: HT-29
HOP-62 = system: HOP-62
DU-145 = system: DU-145
BT-549 = system: BT-549
HCT-116 = system: HCT-116
A549 = system: A549
SF-268 = system: SF-268
TK-10 = system: TK-10
MCF7 = system: MCF7
UACC-62 = system: UACC-62
OVCAR-4 = system: OVCAR-4
CAKI-1 = system: CAKI-1
HOP-92 = system: HOP-92
SK-MEL-5 = system: SK-MEL-5
M14 = system: M14
SF-295 = system: SF-295
NCI/ADR-RES = system: NCI/ADR-RES
LOX IMVI = system: LOX IMVI
OVCAR-5 = system: OVCAR-5
PC-3 = system: PC-3
COLO 205 = system: COLO 205
SK-MEL-2 = system: SK-MEL-2
SW-620 = system: SW-620
SR = system: SR
MDA-N = system: MDA-N
Malme-3M = system: Malme-3M
UACC-257 = system: UACC-257
MDA-MB-435 = system: MDA-MB-435
Hs-578T = system: Hs-578T
MDA-MB-231 = system: MDA-MB-231
NCI-H226 = system: NCI-H226
HCC 2998 = system: HCC 2998
U-251 = system: U-251
SK-MEL-28 = system: SK-MEL-28
K562 = system: K562
RPMI-8226 = system: RPMI-8226

CCCS(=O)(=O)Nc1ccc(Nc2c3ccccc3nc3ccccc23)c(OC)c1
GI50 (MOLT-4): 0.0211 µM (active)
GI50 (CCRF-CEM): 0.0475 µM (active)
GI50 (786-0): 0.807 µM (active)
GI50 (OVCAR-3): 2.3 µM (inactive)
GI50 (EKVX): 12.7 µM (inactive)
GI50 (IGROV-1): 1.31 µM (inactive)
GI50 (ACHN): 0.362 µM (active)
GI50 (KM12): 1.92 µM (inactive)
GI50 (SNB-19): 1.08 µM (active)
GI50 (SNB-75): 1.04 µM (active)
GI50 (T47D): 0.902 µM (active)
GI50 (HL-60): 0.126 µM (active)
GI50 (NCI-H522): 0.38 µM (active)
GI50 (OVCAR-8): 1.2 µM (inactive)
GI50 (RXF 393): 5.19 µM (inactive)
GI50 (UO-31): 1.08 µM (active)
GI50 (NCI-H23): 0.421 µM (active)
GI50 (SN12C): 0.127 µM (active)
GI50 (HCT-15): 1.35 µM
GI50 (A498): 0.904 µM (active)
GI50 (SK-OV-3): 2.08 µM (inactive)
GI50 (SF-539): 1.17 µM (inactive)
GI50 (NCI-H460): 0.0362 µM (active)
GI50 (HT-29): 1.75 µM (inactive)
GI50 (HOP-62): 0.561 µM (active)
GI50 (DU-145): 0.271 µM (active)
GI50 (BT-549): 2.37 µM (inactive)
GI50 (HCT-116): 0.929 µM (active)
GI50 (A549): 0.43 µM (active)
GI50 (SF-268): 0.853 µM (active)
GI50 (TK-10): 3.78 µM (inactive)
GI50 (MCF7): 0.365 µM (active)
GI50 (UACC-62): 0.695 µM (active)
GI50 (OVCAR-4): 7.62 µM (inactive)
GI50 (CAKI-1): 0.4 µM (active)
GI50 (HOP-92): 1.73 µM (inactive)
GI50 (SK-MEL-5): 2 µM (inactive)
GI50 (M14): 0.467 µM (active)
GI50 (SF-295): 0.429 µM (active)
GI50 (NCI/ADR-RES): 3.95 µM (inactive)
GI50 (LOX IMVI): 0.315 µM (active)
GI50 (OVCAR-5): 8.63 µM (inactive)
GI50 (PC-3): 3.88 µM (inactive)
GI50 (COLO 205): 2.16 µM (inactive)
GI50 (SK-MEL-2): 2.86 µM (inactive)
GI50 (SW-620): 2.08 µM (inactive)
GI50 (SR): 0.0236 µM (active)
GI50 (MDA-N): 4.16 µM (inactive)
GI50 (Malme-3M): 1.04 µM (active)
GI50 (UACC-257): 5.53 µM (inactive)
GI50 (MDA-MB-435): 5.28 µM (inactive)
GI50 (Hs-578T): 3.16 µM (inactive)
GI50 (MDA-MB-231): 3.32 µM (inactive)
GI50 (NCI-H226): 1.46 µM (inactive)
GI50 (HCC 2998): 2.1 µM (inactive)
GI50 (U-251): 0.641 µM (active)

COC(=O)c1c(C(=O)OC)c(C(c2ccccc2)c2ccccc2)n(-c2ccccc2)c1Cl
GI50 (MOLT-4): 2.24 µM (inactive)
GI50 (CCRF-CEM): 4.61 µM (inactive)
GI50 (786-0): > 10 µM (inactive)
GI50 (OVCAR-3): 5.66 µM (inactive)
GI50 (EKVX): 5.75 µM (inactive)
GI50 (IGROV-1): > 10 µM (inactive)
GI50 (SK-MEL-28): > 10 µM (inactive)
GI50 (ACHN): 6.25 µM (inactive)
GI50 (K562): 4.14 µM (inactive)
GI50 (KM12): 4.69 µM (inactive)
GI50 (SNB-19): > 10 µM (inactive)
GI50 (RPMI-8226): 3.35 µM (inactive)
GI50 (T47D): 4.74 µM (inactive)
GI50 (HL-60): 4.06 µM (inactive)
GI50 (OVCAR-8): > 10 µM (inactive)
GI50 (RXF 393): > 10 µM (inactive)
GI50 (UO-31): 3.81 µM (inactive)
GI50 (NCI-H23): 6.76 µM (inactive)
GI50 (SN12C): > 10 µM (inactive)
GI50 (HCT-15): 5.5 µM
GI50 (A498): > 10 µM (inactive)
GI50 (SF-539): > 10 µM (inactive)
GI50 (NCI-H460): > 10 µM (inactive)
GI50 (HT-29): 4.61 µM (inactive)
GI50 (HOP-62): > 10 µM (inactive)
GI50 (DU-145): > 10 µM (inactive)
GI50 (BT-549): 7.16 µM (inactive)
GI50 (HCT-116): 3.7 µM (inactive)
GI50 (A549): 7.03 µM (inactive)
GI50 (SF-268): > 10 µM (inactive)
GI50 (TK-10): > 10 µM (inactive)
GI50 (MCF7): 7.76 µM (inactive)
GI50 (UACC-62): 9.33 µM (inactive)
GI50 (OVCAR-4): 6.49 µM (inactive)
GI50 (CAKI-1): > 10 µM (inactive)
GI50 (HOP-92): 9.14 µM (inactive)
GI50 (SK-MEL-5): > 10 µM (inactive)
GI50 (M14): > 10 µM (inactive)
GI50 (SF-295): 5 µM (inactive)
GI50 (NCI/ADR-RES): 4.24 µM (inactive)
GI50 (OVCAR-5): > 10 µM (inactive)
GI50 (PC-3): 3.09 µM (inactive)
GI50 (COLO 205): 6.03 µM (inactive)
GI50 (SW-620): 7.43 µM (inactive)
GI50 (SR): 3.17 µM (inactive)
GI50 (MDA-N): > 10 µM (inactive)
GI50 (Malme-3M): 5.79 µM (inactive)
GI50 (UACC-257): 7.14 µM (inactive)
GI50 (MDA-MB-435): 7.16 µM (inactive)
GI50 (Hs-578T): 3.43 µM (inactive)
GI50 (MDA-MB-231): > 10 µM (inactive)
GI50 (NCI-H226): > 10 µM (inactive)
GI50 (HCC 2998): > 10 µM (inactive)
GI50 (U-251): 6.73 µM (inactive)

C=C(c1ccccc1)C1ON(C)CCc2cc(OC)c(OC)cc21 (configuration not stated)
GI50 (MOLT-4): 89.3 µM (inactive)
GI50 (CCRF-CEM): > 100 µM (inactive)
GI50 (786-0): > 100 µM (inactive)
GI50 (OVCAR-3): > 100 µM (inactive)
GI50 (EKVX): > 100 µM (inactive)
GI50 (IGROV-1): > 100 µM (inactive)
GI50 (SK-MEL-28): 45.1 µM (inactive)
GI50 (ACHN): 84.7 µM (inactive)
GI50 (K562): 58.7 µM (inactive)
GI50 (KM12): > 100 µM (inactive)
GI50 (SNB-19): > 100 µM (inactive)
GI50 (SNB-75): > 100 µM (inactive)
GI50 (RPMI-8226): > 100 µM (inactive)
GI50 (T47D): 37 µM (inactive)
GI50 (HL-60): > 100 µM (inactive)
GI50 (NCI-H522): 56.4 µM (inactive)
GI50 (OVCAR-8): > 100 µM (inactive)
GI50 (RXF 393): > 100 µM (inactive)
GI50 (UO-31): 81.5 µM (inactive)
GI50 (NCI-H23): 66.2 µM (inactive)
GI50 (SN12C): > 100 µM (inactive)
GI50 (HCT-15): 68.1 µM
GI50 (A498): > 100 µM (inactive)
GI50 (SK-OV-3): > 100 µM (inactive)
GI50 (SF-539): > 100 µM (inactive)
GI50 (NCI-H460): > 100 µM (inactive)
GI50 (HT-29): 75.3 µM (inactive)
GI50 (HOP-62): > 100 µM (inactive)
GI50 (DU-145): > 100 µM (inactive)
GI50 (BT-549): > 100 µM (inactive)
GI50 (HCT-116): 43.4 µM (inactive)
GI50 (A549): > 100 µM (inactive)
GI50 (SF-268): 49.2 µM (inactive)
GI50 (TK-10): > 100 µM (inactive)
GI50 (MCF7): 0.256 µM (active)
GI50 (UACC-62): > 100 µM (inactive)
GI50 (CAKI-1): > 100 µM (inactive)
GI50 (HOP-92): 34.4 µM (inactive)
GI50 (SK-MEL-5): 23.3 µM (inactive)
GI50 (M14): > 100 µM (inactive)
GI50 (SF-295): 58.9 µM (inactive)
GI50 (NCI/ADR-RES): 48.4 µM (inactive)
GI50 (LOX IMVI): 26.2 µM (inactive)
GI50 (OVCAR-5): > 100 µM (inactive)
GI50 (PC-3): > 100 µM (inactive)
GI50 (COLO 205): > 100 µM (inactive)
GI50 (SW-620): > 100 µM (inactive)
GI50 (SR): 88.7 µM (inactive)
GI50 (MDA-N): > 100 µM (inactive)
GI50 (Malme-3M): 96.4 µM (inactive)
GI50 (UACC-257): 42.3 µM (inactive)
GI50 (MDA-MB-435): 84.9 µM (inactive)
GI50 (Hs-578T): 18.3 µM (inactive)
GI50 (MDA-MB-231): 53.6 µM (inactive)
GI50 (NCI-H226): > 100 µM (inactive)
GI50 (HCC 2998): > 100 µM (inactive)
GI50 (U-251): > 100 µM (inactive)
